Experimental data reported in PMC12261233, “Photoactivatable Cyclometalated Ir(III) Compound Penetrates the Blood-Brain Barrier in 3D Spheroidal and Advanced 3D Organoid Models of Inherently Resistant and Aggressive Brain Tumors” (ACS Pharmacology & Translational Science, 2025).
Read-outs that look alike come from different tables or passages of the source.

System: U87MG spheroids
Experiment: Antiproliferative activity, 3D spheroids, CellTiter-Glo 3D assay
Assay type: cell-based, human
Conditions: for PI (phototoxicity index) 3D: IC50 dark / IC50 420 nm irradiated; for IC50: U87MG 3D spheroids, 90 min treatment, CellTiter-Glo 3D; for TMI (3D/2D): ratio of IC50 for 3D and 2D models under irradiation
Method: The antiproliferative activity of the compounds under investigation was assessed using the Sulforhodamine B (SRB) assay on both 2D cell monolayers and 3D spheroids. For the 2D cell monolayer assay, cells were seeded in 96-well tissue culture plates at a density of 3 × 10^3 cells/well in 100 μL of culture medium. Following overnight incubation in a humidified CO2 incubator, the medium was replaced, and the cells were treated with the investigated compounds in a final volume of 200 μL/well of Earle’s Balanced Salt Solution (EBSS). The cells were then exposed to the tested compounds for 1.5 h under dark conditions (5% CO2, 37 °C) and subsequently irradiated with blue light (420 nm) for 30 min at an intensity of 58 W/m^2. After treatment, the samples were washed with Phosphate-Buffered Saline (PBS) and replenished with 200 μL of culture medium. Following an additional 70-h incubation, the cells were washed with PBS, fixed with trichloroacetic acid at 4 °C for 1 h, and stained with 0.4% SRB dye for 30 min. The stained cells were dissolved with Tris (10 mM), and the cell viability was assessed by measuring the absorbance at 570 nm using an Absorbance Reader (SPARK TECAN, SCHOELLER). The absorbance readings were then converted to the percentage of control (% cell survival), and the antiproliferative effects were expressed as IC50 values, which were calculated from curves plotting cell survival (%) versus drug concentration (μM) (IC50 = the concentration of the agent that inhibits cell growth by 50%). For experiments with 3D spheroids, 2500 single cells/well were seeded on ultralow attachment U-shape 96-well plates (Corning, USA) and cultured for 72 h in 3D forming medium DMEM-F12 ham medium supplemented with growth and spheroid forming factors: 2% B27 (Thermo Fisher Scientific Inc., MA, USA), epidermal growth factor (EGF; Sigma-Aldrich, Germany, 20 ng mL^–1), fibroblast growth factor (FGF2; Sigma-Aldrich, Germany, 10 ng mL^–1), and BSA (0.15%). After the 72-h spheroid formation period, the samples were treated and irradiated as described for the 2D cultures. Subsequently, the samples were cultured in the 3D forming medium for an additional 70 h, and the antiproliferative potency of the tested compounds against spheroids was determined by assessing changes in IC50 values using the CellTiterGlo-3D assay (Promega). The luminescence signal was detected using the plate reader SPARK (Tecan, Manedorf, Switzerland), and the IC50 values were calculated from the survival curves. All experiments were conducted in triplicate to ensure the reliability and reproducibility of the results. Furthermore, the concentrations of the compounds in the medium during the treatment were verified using Flame Atomic Absorption Spectroscopy (FAAS) or Inductively Coupled Plasma Mass Spectrometry (ICP-MS).
The antiproliferative activity (IC50 valuesa) of the investigated compounds determined in 2D and 3D models of U87MG cellsb
Dark Irradiated PId Dark Irradiated PIe (3D/2D) […]
a Concentration that causes 50% inhibition of cell proliferation. b Cell monolayer or generated 3D spheroids were treated for 90 min with increasing concentrations of the investigated compounds, followed by 30 min of irradiation with blue light (420 nm; 58 Wm-2) and 70 h of drug-free incubation. c IC50 values were determined by SRB assay. d IC50 values were determined by CellTiter-Glo® 3D chemiluminescent assay. e PI - phototoxicity index was calculated as the ratio of IC50 determined under the dark conditions / IC50 determined for 420 […]
f TMI – tissue-mass index was calculated as the ratio of IC50 values determined for 3D and 2D models under irradiation conditions.

[1] = dark, 70 h drug-free, read-out: IC50 3D Dark
[2] = 30 min blue light 420 nm 58 W m-2, 70 h drug-free, read-out: IC50 3D Irradiated

IC50 (Homo sapiens, U-87 MG, light or radiation study, 30 min blue light 420 nm 58 W m-2, 70 h drug-free, read-out: IC50 3D Irradiated) [µM] | IC50 (Homo sapiens, U-87 MG, dark, 70 h drug-free, read-out: IC50 3D Dark) [µM] | SMILES | PI (phototoxicity index) 3D | IC50 [1] [µM] | IC50 [2] [µM] | TMI (3D/2D)
– | – | CCCCn1c2[n+](c3cc(C(=O)OC)ccc31)[Ir-3]13([Cl])([c]4ccccc4-2)[n+]2ccccc2-c2cc(-c4ccc(C)cc4)cc([n+]21)-c1cccc[n+]13.F[P-](F)(F)(F)(F)F [Ir4] | 13.1 | 27.6 ± 4 | 2.1 ± 0.2 | 4
95.3 ± 6.4 | ≥ 100 | Cn1nnc2c(C(N)=O)ncn2c1=O [Temozolomide, reference compound] | – | – | – | –
– | – | Cc1ccc(-c2cc3[n+]4c(c2)-c2cccc[n+]2[Ir-3]42([Cl])([c]4cc5ccccc5cc4-c4n(Cc5ccc(C(F)(F)F)cc5)c5ccccc5[n+]42)[n+]2ccccc2-3)cc1.F[P-](F)(F)(F)(F)F [Ir3] | 6.1 | 36.6 ± 4.5 | 6 ± 1 | 9.0
– | – | Cc1ccc(-c2cc3[n+]4c(c2)-c2cccc[n+]2[Ir-3]42([Cl])([c]4c(ccc5c4OCO5)-c4n(Cc5ccc(C(F)(F)F)cc5)c5ccccc5[n+]42)[n+]2ccccc2-3)cc1.F[P-](F)(F)(F)(F)F [Ir5] | 4.5 | 32.3 ± 3.3 | 7.1 ± 0.8 | 16.9
